From patent US20260365653A1, “IRREVERSIBLE MUTEGFR INHIBITORS” (Bayer Aktiengesellschaft, priority 2022, published 2026)

Assays:
[1] = molecular target: T1, mutEGFR (D770_N771insNPG, T790) (Homo sapiens, UniProt P00533, INS770NPG/T790M); assay: mutEGFR (D770_N771insNPG, T790) kinase assay; type: biochemical; conditions: Table 2a, D770_N771insNPG
T1 construct: exact insNPG construct not described; in-house EGFR proteins were N-terminal GST fusions from baculovirus/insect cells (borders R669-A1210 given only for WT, insSVD, insASV)
Text: The different EGFR proteins used in the biochemical kinase activity inhibition assays were generated inhouse by expression in insect cells using Baculo Virus system and subsequent purification as described in the following paragraphs.
The cDNAs encoding the various protein sequences from human EGFR human (P00533) were optimized for expression in eukaryotic cells and synthesized by the GeneArt Technology at Life Technologies.

[2] = molecular target: T2, mutEGFR (D770_N771insSVD) (Homo sapiens, UniProt P00533, DUP768-770); assay: Exon20-Mutant-EGFR (D770_N771insSVD) kinase assay (TR-FRET); type: biochemical; conditions: mutEGFR (D770_N771insSVD) kinase assay IC50, Table 2a; D770_N771insSVD; 2 mM ATP
T2 construct: GST-EGFR #3 (SVD between D770 and N771); made in house; host or cells: Sf9 insect cells (baculovirus)

[3] = tested on: BA/F3 (insSVD) cells; assay: Ba/F3-EGFR-insSVD cell survival assay (Cell Titer-Glo); type: cell-based; conditions: Mus musculus, BaF3, 48 h, Table 3a, cell survival, Cell Titer-Glo, with 10 ng/ml EGF, without IL-3
Outline: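 Ba/F3 cells stably expressing retroviral EGFR-insSVD or insSVD T790M, grown without IL-3 on 10 ng/ml EGF, 4000 cells/well. Compound pinned in, 48 h at 37° C. Viability by CellTiter-Glo luminescence.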

T2 sequence (P00533 with tags, fused parts or gaps DUP768-770): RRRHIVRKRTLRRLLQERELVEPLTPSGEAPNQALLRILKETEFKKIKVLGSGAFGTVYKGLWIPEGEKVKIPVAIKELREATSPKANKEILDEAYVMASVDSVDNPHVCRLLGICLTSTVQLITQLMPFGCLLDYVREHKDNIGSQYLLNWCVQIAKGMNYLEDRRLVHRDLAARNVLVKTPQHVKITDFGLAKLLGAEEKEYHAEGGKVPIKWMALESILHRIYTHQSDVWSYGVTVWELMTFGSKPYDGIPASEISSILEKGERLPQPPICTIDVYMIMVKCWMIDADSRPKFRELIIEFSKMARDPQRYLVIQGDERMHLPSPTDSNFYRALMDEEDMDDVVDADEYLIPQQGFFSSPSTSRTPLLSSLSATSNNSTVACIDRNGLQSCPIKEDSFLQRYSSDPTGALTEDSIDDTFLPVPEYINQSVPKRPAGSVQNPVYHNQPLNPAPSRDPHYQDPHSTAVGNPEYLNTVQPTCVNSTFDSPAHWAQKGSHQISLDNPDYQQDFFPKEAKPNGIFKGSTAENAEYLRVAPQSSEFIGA
T1 sequence (P00533 with tags, fused parts or gaps INS770NPG/T790M limits assumed): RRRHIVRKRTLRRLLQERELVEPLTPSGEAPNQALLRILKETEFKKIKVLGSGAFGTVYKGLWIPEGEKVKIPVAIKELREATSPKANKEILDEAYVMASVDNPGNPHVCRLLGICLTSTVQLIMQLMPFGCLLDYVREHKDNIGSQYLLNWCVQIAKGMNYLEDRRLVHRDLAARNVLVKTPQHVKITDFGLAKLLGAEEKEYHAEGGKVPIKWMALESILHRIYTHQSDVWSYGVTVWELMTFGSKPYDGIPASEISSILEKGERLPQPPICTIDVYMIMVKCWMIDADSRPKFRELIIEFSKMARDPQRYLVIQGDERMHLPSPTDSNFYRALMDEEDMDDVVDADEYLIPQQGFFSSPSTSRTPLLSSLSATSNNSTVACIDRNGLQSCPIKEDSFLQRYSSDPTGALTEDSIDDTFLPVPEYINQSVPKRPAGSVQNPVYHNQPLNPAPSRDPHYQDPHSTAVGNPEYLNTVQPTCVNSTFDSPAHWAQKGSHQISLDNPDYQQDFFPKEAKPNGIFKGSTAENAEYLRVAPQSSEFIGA

Row | Compound | IC50 [1] [nM] | IC50 [2] [nM] | IC50 [3] [nM]
1 | CCc1cc(-c2nn3c(c2-c2ccncc2)CN(C(=O)/C=C/CN(C)C)CC3)ccc1Cl [Example 32, formic acid-(2E)-1-[2-(4-chloro-3-ethylphenyl)-3-(pyridin-4-yl)-6,7-dihydropyrazolo[1,5-a]pyrazin-5(4H)-yl]-4-(dimethylamino)but-2-en-1-one (1:1)] | 3.89 | 1.31 | 1070
2 | CN(C)C/C=C/C(=O)N1CCn2nc(-c3ccc(C#N)cc3)c(-c3ccncc3)c2C1 [Example 33, 4-{5-[(2E)-4-(dimethylamino)but-2-enoyl]-3-(pyridin-4-yl)-4,5,6,7-tetrahydropyrazolo[1,5-a]pyrazin-2-yl}benzonitrile] | 67 | 8.35 | 1840
3 | CN(C)C/C=C/C(=O)N1CCn2nc(-c3ccc(C(F)(F)F)cc3)c(-c3ccncc3)c2C1 [Example 34, (2E)-4-(dimethylamino)-1-[3-(pyridin-4-yl)-2-[4-(trifluoromethyl)phenyl]-6,7-dihydropyrazolo[1,5-a]pyrazin-5(4H)-yl]but-2-en-1-one] | 4.32 | 1.37 | 198
4 | CN(C)C/C=C/C(=O)N1CCn2nc(-c3ccc(Cl)cc3CO)c(-c3ccncc3)c2C1 [Example 35, (2E)-1-{2-[4-chloro-2-(hydroxymethyl)phenyl]-3-(pyridin-4-yl)-6,7-dihydropyrazolo[1,5-a]pyrazin-5(4H)-yl}-4-(dimethylamino)but-2-en-1-one] | 2.94 | 1.36 | 802
5 | C=CC(=O)N1CCn2nc(-c3ccc(OC)c(Cl)c3)c(-c3ccncc3)c2C1 [Example 38, 1-[2-(3-chloro-4-methoxyphenyl)-3-(pyridin-4-yl)-6,7-dihydropyrazolo[1,5-a]pyrazin-5(4H)-yl]prop-2-en-1-one] | 0.489 | 0.554 | 32.1
6 | C=CC(=O)N1CCn2nc(-c3ccccc3OC)c(-c3ccncc3)c2C1 [Example 39, 1-[2-(2-methoxyphenyl)-3-(pyridin-4-yl)-6,7-dihydropyrazolo[1,5-a]pyrazin-5(4H)-yl]prop-2-en-1-one] | 18.3 | 37.6 | 622
7 | C=CC(=O)N1CCn2nc(-c3ccc(OC)cc3)c(-c3ccncc3)c2C1 [Example 41, 1-[2-(4-methoxyphenyl)-3-(pyridin-4-yl)-6,7-dihydropyrazolo[1,5-a]pyrazin-5(4H)-yl]prop-2-en-1-one] | 3.22 | 1.09 | 37.2
8 | C=CC(=O)N1CCn2nc(-c3ccc(OC)c(F)c3)c(-c3ccncc3)c2C1 [Example 42, 1-[2-(3-fluoro-4-methoxyphenyl)-3-(pyridin-4-yl)-6,7-dihydropyrazolo[1,5-a]pyrazin-5(4H)-yl]prop-2-en-1-one] | 6.31 | 1.01 | 53.6
9 | C=CC(=O)N1CCn2nc(-c3ccc(C#N)cc3)c(-c3ccncc3)c2C1 [Example 43, 4-[5-acryloyl-3-(pyridin-4-yl)-4,5,6,7-tetrahydropyrazolo[1,5-a]pyrazin-2-yl]benzonitrile] | 18.5 | 3.16 | 131
10 | C=CC(=O)N1CCn2nc(-c3ccc(C(F)(F)F)cc3)c(-c3ccncc3)c2C1 [Example 44, 1-[3-(pyridin-4-yl)-2-[4-(trifluoromethyl)phenyl]-6,7-dihydropyrazolo[1,5-a]pyrazin-5(4H)-yl]prop-2-en-1-one] | 2.8 | 0.989 | 39
11 | C=CC(=O)N1CCn2nc(-c3cccc(C#N)c3)c(-c3ccnc4[nH]cc(C)c34)c2C1 [Example 45] | 158 | 973 | 218
12 | C=CC(=O)N1CCn2nc(-c3ccc(OC)c(F)c3)c(-c3ccnc4[nH]cc(C)c34)c2C1 [Example 46, 1-[2-(3-fluoro-4-methoxyphenyl)-3-(3-methyl-1H-pyrrolo[2,3-b]pyridin-4-yl)-6,7-dihydropyrazolo[1,5-a]pyrazin-5(4H)-yl]prop-2-en-1-one] | 555 | 770 | 170
